Source: patent US20240189292A1 (priority 2021, published 2024)
Read-outs that look alike come from different tables or passages of the source.

Experiment: in vivo
Design: species or system SD rats
Settings: male, SD, rat, plasma; for AUC: read-out: Area Under Curve AUC; for clearance: read-out: Clearance Rate Cl; for C0: read-out: Initial Concentration C0; for Vd: read-out: Volume of Distribution Vd; for bioavailability: read-out: Bioavailability F; for Cmax: read-out: Peak Concentration Cmax
[1] = iv, 0.2 mg/kg, read-out: Half-life T1/2 (converted)
[2] = po, 1 mg/kg, read-out: Peak Concentration Time T1/2 (converted)

Row | Compound | AUC (iv, 0.2 mg/kg) [µM·h] | clearance (iv, 0.2 mg/kg) [mL/min/kg] | half-life [1] [h] | C0 (iv, 0.2 mg/kg) [nM] | Vd (iv, 0.2 mg/kg) [L/kg] | AUC (po, 1 mg/kg) [µM·h] | bioavailability (po, 1 mg/kg) [%] | Cmax (po, 1 mg/kg) [nM] | half-life [2] [h] | AUC (intravenous, 0.2 mg/kg) [µM·h] | clearance (intravenous, 0.2 mg/kg) [mL/min/kg] | half-life (intravenous, 0.2 mg/kg, read-out: Half-life T1/2 (converted)) [h] | C0 (intravenous, 0.2 mg/kg) [nM] | Vd (intravenous, 0.2 mg/kg) [L/kg]
1 | C[C@H](NC1=CC(=O)C2(CCCC2)C(=O)N1)c1ccccc1 [Compound 3] | 1.33 | 8.11 | 2.31 | 773 | 1.6 | 7.32 | 110 | 1380 | 4.81 | – | – | – | – | –
2 | C[C@H](NC1=CC(=O)C2(CCCC2)C(=O)N1)c1cccc(Cl)c1 [Compound 7] | 3.53 | 2.93 | 3.86 | 3700 | 0.885 | 14.8 | 88.1 | 2140 | 5.96 | – | – | – | – | –
3 | Cc1ccc(F)c([C@H](C)NC2=CC(=O)C3(CCCC3)C(=O)N2)c1 [Compound 9] | 2.11 | 4.78 | 5.93 | 4820 | 1.73 | 8.11 | 76.7 | 1940 | 7.35 | – | – | – | – | –
4 | C[C@H](NC1=CC(=O)C2(CCCC2)C(=O)N1)c1cc(F)ccc1F [Compound 10] | – | – | – | – | – | 7.93 | – | 1310 | 4.83 | 1.29 | 6 | 6.37 | 1460 | 2.7
